In patent US10550116B2, “Fused bicyclic heterocycle derivatives as pesticides” (BAYER CROPSCIENCE AKTIENGESELLSCHAFT, priority 2015, dated 2020):
Where two headings read alike, the source gives them in different places.

How the values were obtained:
[1] = log P by HPLC on reversed-phase column (EEC Directive 79/831 Annex V.A8); assay type: physicochemical; conditions: reversed-phase C18 HPLC column, 55° C.
Description: The log P values are measured according to EEC Directive 79/831 Annex V.A8 by HPLC (high-performance liquid chromatography) on a reversed-phase column (C 18). Temperature: 55° C. The LC-MS determination in the acidic range is effected at pH 2.7 using 0.1% aqueous formic acid and acetonitrile (contains 0.1% formic acid) as eluents; linear gradient from 10% acetonitrile to 95% acetonitrile. Called log P (HCOOH) in the table. LC-MS determination in the neutral range is effected at pH 7.8 with 0.001 molar aqueous ammonium hydrogencarbonate solution and acetonitrile as eluents; linear gradient from 10% acetonitrile to 95% acetonitrile. Called log P (neutral) in the table. Calibration is carried out using unbranched alkan-2-ones (having 3 to 16 carbon atoms) with known log P values (log P values determined on the basis of the retention times by linear interpolation between two successive alkanones).

Myzus persicae = Myzus persicae spray test; assay type: in vivo; conditions: foliar, Chinese cabbage leaf discs, after 5-6 days, read-out: efficacy
Description: (§1) To produce a suitable active ingredient preparation, 1 part by weight of active ingredient is dissolved with the stated parts by weight of solvent and made up with water containing an emulsifier concentration of 1000 ppm until the desired concentration is attained. To produce further test concentrations, the preparation is diluted with emulsifier-containing water. Discs of Chinese cabbage leaves (Brassica pekinensis) infested by all stages of the green peach aphid (Myzus persicae) are sprayed with an active ingredient preparation of the desired concentration. After 5-6 days, the efficacy in % is determined. 100% means that all the aphids have been killed; 0% means that no aphids have been killed.

Spodoptera frugiperda = Spodoptera frugiperda spray test; assay type: in vivo; conditions: foliar, 168 h, caterpillars on maize leaf discs, after 7 days, read-out: efficacy
Description: To produce a suitable active ingredient preparation, 1 part by weight of active ingredient is dissolved with the stated parts by weight of solvent and made up with water containing an emulsifier concentration of 1000 ppm until the desired concentration is attained. To produce further test concentrations, the preparation is diluted with emulsifier-containing water. Leaf discs of maize (Zea mays) are sprayed with an active ingredient preparation of the desired concentration and, after drying, populated with caterpillars of the armyworm (Spodoptera frugiperda). After 7 days, the efficacy in % is determined. 100% means that all the caterpillars have been killed; 0% means that no caterpillar has been killed.

Phaedon cochleariae = Phaedon cochleariae spray test; assay type: in vivo; conditions: foliar, 168 h, larvae on Chinese cabbage leaf discs, after 7 days, read-out: efficacy
Description: as §1, with “pekinensis)” for “pekinensis) infested by all stages of the green peach aphid (Myzus persicae)”, “concentration and, after drying, populated with larvae of the mustard beetle (Phaedon cochleariae).” for “concentration.”, “7” for “5-6”, “beetle larvae” for “aphids”

[2] = pH 7.8, aqueous ammonium hydrogencarbonate/acetonitrile, read-out: log P (neutral)
[3] = pH 2.7, 0.1% aqueous formic acid/acetonitrile, read-out: log P (acidic)

`CCSc1cc2ccccc2nc1C(C)=O` [1-[3-(Ethylsulphanyl)quinolin-2-yl]ethanone] showed a chromatographic logP [1, 2] of 3.31.
`CCSc1cc2ccccc2nc1C(=O)CBr` [2-Bromo-1-[3-(ethylsulphanyl)quinolin-2-yl]ethanone] gave a chromatographic logP [1, 3] of 3.95.
Compound `CCSc1ccc2nc(-c3nc4cc(C(F)(F)F)ncc4n3C)c(SCC)cc2c1` [3,6-bis(ethylsulphanyl)-2-[3-methyl-6-(trifluoromethyl)imidazo[4,5-c]pyridin-2-yl]quinoline] has a chromatographic logP [1, 2] of 4.35.
`CCSc1cc2ccccc2nc1C(=O)N(C)OC` [3-(Ethylsulphanyl)-N-methoxy-N-methylquinoline-2-carboxamide] gave a chromatographic logP [1, 2] of 2.17.
With `CCSc1cc2ccccc2nc1C(=O)O` [3-(Ethylsulphanyl)quinoline-2-carboxylic acid] the chromatographic logP [1, 2] was 0.48.
Work on `CCSc1cc2cc(Cl)ccc2nc1-c1nc2cc(C(F)(F)F)ncc2n1C` [6-Chloro-3-ethylsulphanyl-2-[3-methyl-6-(trifluoromethyl)imidazo[4,5-c]pyridin-2-yl]quinoline] yielded a chromatographic logP [1, 2] of 3.99.
`CCSc1cc2ccccc2nc1-c1nc2cc(C(F)(F)F)ncc2n1C` [Example I-2, 3-Ethylsulphanyl-2-[3-methyl-6-(trifluoromethyl)imidazo[4,5-c]pyridin-2-yl]quinoline] gave a pest or weed control at 100 g/ha (Myzus persicae) of 100%, a pest or weed control at 500 g/ha (Spodoptera frugiperda) of 100% and a chromatographic logP [1, 2] of 3.3.
For `CCS(=O)(=O)c1nc2ccccc2nc1-c1nc2cc(C(F)(F)F)ncc2n1C` [Example I-3, 2-Ethylsulphonyl-3-[3-methyl-6-(trifluoromethyl)imidazo[4,5-c]pyridin-2-yl]quinoxaline], the chromatographic logP [1, 2] was 2.45.
In the case of `CCS(=O)(=O)c1cc2ccccc2nc1-c1nc2cc(C(F)(F)F)cnc2n1C` [Example I-5], the pest or weed control at 500 g/ha (Myzus persicae) is reported as 70%, the pest or weed control at 500 g/ha (Phaedon cochleariae) is reported as 100% and the pest or weed control at 500 g/ha (Spodoptera frugiperda) is reported as 100%.
Work on `CCS(=O)(=O)c1ccc2nc(-c3nc4cc(C(F)(F)F)ncc4n3C)c(S(=O)(=O)CC)cc2c1` [Example I-6, 3,6-Bis(ethylsulphonyl)-2-[3-methyl-6-(trifluoromethyl)imidazo[4,5-c]pyridin-2-yl]quinoline] yielded a pest or weed control at 500 g/ha (Myzus persicae) of 90%, a pest or weed control at 500 g/ha (Phaedon cochleariae) of 83% and a pest or weed control at 500 g/ha (Spodoptera frugiperda) of 100%. The chromatographic logP [1, 2] was 2.58.
In the case of `CCS(=O)(=O)c1cc2cc(Cl)ccc2nc1-c1nc2cc(C(F)(F)F)ncc2n1C` [Example I-7], the pest or weed control at 500 g/ha (Myzus persicae) is reported as 90%, the pest or weed control at 500 g/ha (Phaedon cochleariae) is reported as 100% and the pest or weed control at 500 g/ha (Spodoptera frugiperda) is reported as 100%.
In the case of `CCS(=O)(=O)c1cc2ccccc2nc1-c1nc2cc(C(F)(F)C(F)(F)F)ncc2n1C` [Example I-10], the pest or weed control at 500 g/ha (Myzus persicae) is reported as 90%, the pest or weed control at 500 g/ha (Phaedon cochleariae) is reported as 100% and the pest or weed control at 500 g/ha (Spodoptera frugiperda) is reported as 100%.
For `CCS(=O)(=O)c1cc2ccccc2nc1-c1nc2cc(C(F)(F)F)ccc2n1C` [Example I-12], the pest or weed control at 500 g/ha (Myzus persicae) was 90%, the pest or weed control at 500 g/ha (Phaedon cochleariae) was 100% and the pest or weed control at 500 g/ha (Spodoptera frugiperda) was 100%.
In the case of `CCS(=O)(=O)c1cc2ccccc2nc1-c1nc2cc3c(cc2[nH]1)OC(F)(F)O3` [Example I-15, 6-(3-Ethylsulphonyl-2-quinolyl)-2,2-difluoro-5H-[1,3]dioxolo[4,5-f]benzimidazole], the pest or weed control at 500 g/ha (Phaedon cochleariae) is reported as 100%, the pest or weed control at 500 g/ha (Spodoptera frugiperda) is reported as 100% and the chromatographic logP [1, 2] is reported as 3.37.
`CCS(=O)(=O)c1cc2ccccc2nc1-c1nc2cc(C(F)(F)F)ccc2o1` [Example I-17] showed a pest or weed control at 500 g/ha (Myzus persicae) of 90%, a pest or weed control at 500 g/ha (Phaedon cochleariae) of 100% and a pest or weed control at 500 g/ha (Spodoptera frugiperda) of 100%.
For `CCS(=O)(=O)c1cc2ccccc2nc1-c1nc2cc(C(F)(F)C(F)(F)F)cnc2n1C` [Example I-20], the pest or weed control at 100 g/ha (Myzus persicae) was 100%, the pest or weed control at 100 g/ha (Phaedon cochleariae; 100 g/ha) was 100% and the pest or weed control at 100 g/ha (Spodoptera frugiperda; 100 g/ha) was 100%.
In the case of `CCS(=O)(=O)c1cc2ccccc2nc1-c1nc2cc(S(=O)(=O)C(F)(F)F)ccc2n1C` [Example I-24, 3-Ethylsulphonyl-2-[1-methyl-5-(trifluoromethylsulphonyl)benzimidazol-2-yl]quinoline], the chromatographic logP [1, 2] is reported as 3.42.
In the case of `CCSc1cc2ccccc2nc1-c1nc2cc(C(F)(F)F)cnc2n1C` [Example I-25], the pest or weed control at 500 g/ha (Phaedon cochleariae) is reported as 100% and the pest or weed control at 500 g/ha (Spodoptera frugiperda) is reported as 100%.
`CCSc1cc2ccccc2nc1-c1nc2cc(C(F)(F)F)cnc2o1` [Example I-27] showed a chromatographic logP [1, 2] of 4.36.
`CC[S+]([O-])c1cc2ccccc2nc1-c1nc2cc(C(F)(F)F)cnc2o1` (stereo not drawn) [Example I-28] gave a chromatographic logP [1, 2] of 2.98.
Work on `CC[S+]([O-])c1cc2ccccc2nc1-c1nc2cc(SC(F)(F)F)ccc2o1` (stereo not drawn) [Example I-30] yielded a pest or weed control at 500 g/ha (Myzus persicae) of 70%, a pest or weed control at 500 g/ha (Phaedon cochleariae) of 83% and a pest or weed control at 500 g/ha (Spodoptera frugiperda) of 100%.
`CCSc1cc2ccccc2nc1-c1nc2cc3c(cc2[nH]1)OC(F)(F)O3` [Example I-31, 6-(3-Ethylsulphanyl-2-quinolyl)-2,2-difluoro-5H-[1,3]dioxolo[4,5-f]benzimidazole] showed a chromatographic logP [1, 2] of 4.26.
`CCSc1cc2ccccc2nc1-c1nc2cc(C(F)(F)C(F)(F)F)ncc2n1C` [Example I-35] gave a pest or weed control at 500 g/ha (Phaedon cochleariae) of 83% and a pest or weed control at 500 g/ha (Spodoptera frugiperda) of 100%.
For `CCS(=O)(=O)c1cnc2nc(-c3nc4cc(C(F)(F)F)ncc4n3C)c(S(=O)(=O)CC)cc2c1` [Example I-41, 3,6-Bis(ethylsulphonyl)-2-[3-methyl-6-(trifluoromethyl)-3H-imidazo[4,5-c]pyridin-2-yl]-1,8-naphthyridine], the pest or weed control at 500 g/ha (Myzus persicae) was 90% and the chromatographic logP [1, 2] was 2.21.
In the case of `CCSc1cc2ccccc2nc1-c1cn2cnc(C(F)(F)F)cc2n1` [Example I-46, 3-(Ethylsulphanyl)-2-[7-(trifluoromethyl)imidazo[1,2-c]pyrimidin-2-yl]quinoline], the chromatographic logP [1, 2] is reported as 3.24.
With `Cn1c(-c2nc3ccccc3cc2Cl)nc2cc(C(F)(F)F)ncc21` [Example V-1, 3-Chloro-2-[3-methyl-6-(trifluoromethyl)imidazo[4,5-c]pyridin-2-yl]quinoline] the chromatographic logP [1, 2] was 2.89.
With `Cn1c(-c2nc3ccccc3nc2Cl)nc2cc(C(F)(F)F)ncc21` [Example V-2, 2-Chloro-3-[3-methyl-6-(trifluoromethyl)imidazo[4,5-c]pyridin-2-yl]quinoxaline] the chromatographic logP [1, 2] was 2.84.
Work on `Cn1c(-c2nc3ncc(Cl)cc3cc2Cl)nc2cc(C(F)(F)F)ncc21` [Example V-3, 3,6-Dichloro-2-[3-methyl-6-(trifluoromethyl)-3H-imidazo[4,5-c]pyridin-2-yl]-1,8-naphthyridine] yielded a chromatographic logP [1, 2] of 2.44.
`Cn1c(-c2nc3ccc(Cl)cc3cc2Cl)nc2cc(C(F)(F)F)ncc21` [Example V-4, 3,6-Dichloro-2-[3-methyl-6-(trifluoromethyl)imidazo[4,5-c]pyridin-2-yl]quinoline] gave a chromatographic logP [1, 2] of 3.53.
In the case of `O=C(O)c1nc2ncc(Cl)cc2cc1Cl` [III-1, 3,6-Dichloro-1,8-naphthyridine-2-carboxylic acid], the chromatographic logP [1, 3] is reported as 0.7.
In the case of `CCSc1cc2ccccc2nc1C(=O)Nc1cc(C(F)(F)F)cnc1Cl` [IV-1], the chromatographic logP [1, 2] is reported as 5.71.
For `CCS(=O)(=O)c1c(-c2nc3cc(C(F)(F)F)ncc3n2C)ncc2ccccc12` [I′-44], the pest or weed control at 500 g/ha (Myzus persicae) was 90%, the pest or weed control at 500 g/ha (Phaedon cochleariae) was 83% and the pest or weed control at 500 g/ha (Spodoptera frugiperda) was 100%.
Compound `COC(=O)c1ccc2cccnc2n1` [XXII-1, Methyl 1,8-naphthyridine-2-carboxylate] has a chromatographic logP [1, 2] of 0.77.
`COC(=O)c1ccc2ncccc2n1` [XXII-2, Methyl 1,5-naphthyridine-2-carboxylate] gave a chromatographic logP [1, 2] of 0.92.
Work on `O=C(O)c1ccc2cccnc2n1` [XXX-1, 1,8-Naphthyridine-2-carboxylic acid] yielded a chromatographic logP [1, 3] of -0.12.
Work on `COC(=O)c1nc2ncc(Cl)cc2cc1Cl` [XXXI-1, Methyl 3,6-dichloro-1,8-naphthyridine-2-carboxylate] yielded a chromatographic logP [1, 2] of 1.93.
With `COC(=O)c1nc2ccc(Cl)nc2cc1Cl` [XXXI-2, Methyl 3,6-dichloro-1,5-naphthyridine-2-carboxylate] the chromatographic logP [1, 2] was 2.46.
